Where only a bound is given, the exact number is not on record here.

Type in all cases: physicochemical
Data set [1] in a line: Dynamic Vapor Sorption (DVS). As to the method:
Dynamic Vapor Sorption (DVS) was done using a DVS Intrinsic 1. The sample is loaded into a sample pan and suspended from a microbalance. A typical sample mass for DVS measurement is 25 mg. Nitrogen gas bubbled through distilled water provides the desired relative humidity. A typical measurement comprises the steps: • 1. Equilibrate at 50% RH • 2. 50% to 2%. (50%, 40%, 30%, 20%, 10% and 2%) • a. Hold minimum of 5 mins and maximum of 60 minutes at each humidity. The pass criteria is less than 0.002% change • 3. 2% to 95% (2%, 10%, 20%, 30%, 40%, 50%, 60%, 70%, 80%, 90%, 95%) • b. Hold minimum of 5 mins and maximum of 60 minutes at each humidity. The pass criteria is less than 0.002% change • 4. 95% to 2% (95%, 80%, 70%, 60%, 50%, 40%, 30%, 20%, 10%, 2%) • c. Hold minimum of 5 mins and maximum of 60 minutes at each humidity. The pass criteria is less than 0.002% change • 5. 2% to 50% (2%, 10%, 20%, 30%, 40%, 50%) • d. Hold minimum of 5 mins and maximum of 60 minutes at each humidity. The pass criteria is less than 0.002% change
(§1) The water content by Karl Fisher was about 5.3%. […] A DVS isotherm taken at 40° C. was essentially the same as the one at 25° C. […] Humidity test was conducted on Form A with exposure to 11%, 48%, and 75% relative humidity at 40° C. for 2 weeks followed by XRPD analysis. […] Crystallographic data for Form A is as follows:
Form B tends to hold substantial amount of solvent.
(§2) Form D was determined to be anhydrous with a melting peak at 239° C. See e.g., FIG. 9. DVS of Pattern D was performed and solid picked up about 2% moisture from 2% to 95% relative humidity.

Data set [2] in a line: Solubility in water and simulated fluids at 37° C. (slurry, HPLC; XRPD of residual solid). As to conditions: values based on hemi-sulfate sesqui-hydrate salt; for solubility at 1 h / solubility at 2 days: 37 °C, thermodynamic from solid; for solubility at 1 h: slurry time 1 hr. The method, then: Solubility of Patterns A, B and D were measured in water. The solids were slurried in the fluids for two days and at 37° C. The supernatant was syringe filtered and used for HPLC analysis. For Patterns A and D the solubility measurement was repeated and the sample was taken after 1 hr slurry. A calibration curve was developed using Pattern A. This was not assay corrected and therefore the solubility values are based on the hemi-sulfate, sesqui-hydrate salt.
Both Patterns B and D converted to Pattern A after two days slurry. Pattern D also converted to Pattern A within 1 hour slurry in Fasted state simulated gastric fluid (FaSSGF) or water. […] This could be because of the conversion of Patterns B and D to Pattern A. The solubility data and the resulting XRPD Pattern after the measurement are reported in Table 21.

The nature of data set [3]: Humidity / desiccant exposure test followed by XRPD analysis. As to conditions: for XRPD after exposure to phosphorus pentoxide (P2O5) granules: one week. The method, then:
FIG. 5 (i) depicts X-ray powder diffraction pattern (XRPD) overlay for crystalline hemisulfate salt Form A and after exposure to 11%, 48%, and 75% relative humidity and 40° C. for two weeks. […] FIG. 5 (ii) depicts XRPD overlay for crystalline hemisulfate salt Form A and after exposure to phosphorus pentoxide (P2O5) granules at room temperature and 50° C. for one week, as well as ambient temperature in a vial for 24 hrs.
as §1, §2

Data set [4] is described as follows: Solubility in MeOH:Water by slow heating to dissolve at fixed solvent volume. As to conditions: organic solvent or mixture, thermodynamic from solid. As to the method: Three solvent compositions were used as MeOH:Water (99:1 vol), (98:2) and (95:5). About 25 mg of Form A was weighed into 2 mL vial and 6 volume solvent was added, then slowly heated to dissolve. For experiment with 5% water, an additional test was conducted with 8 vol solvents.

As usually defined, the solubility is the dissolved amount per volume that the medium holds. For `O=C(c1ccc(NS(=O)(=O)c2cccc3cccnc23)cc1)N1CCN(CC2CC2)CC1` [Form A, 1-(cyclopropylmethyl)-4-(4-(quinoline-8-sulfonamido)benzoyl)piperazin-1-ium hemisulfate sesquihydrate], in data set [1] (25° C., from 2% to 95% relative humidity), the “moisture picked up in DVS” value is listed as “about 1.3%”. Moreover, in data set [1] (Form A: DVS at 25° C. and 40° C., hemisulfate sesquihydrate), the “XRPD after DVS” value is “remained unchanged”. Moreover, the solubility at 1 h in data set [2] (FaSSGF, fassgf or other biorelevant) was 7070 µg/mL; in data set [2] (water), 3050 µg/mL. The solubility at 2 days is 6800 µg/mL in data set [2] (FaSSGF, fassgf or other biorelevant, slurry time 2 days) and 2690 µg/mL in data set [2] (water, slurry time 2 days). Besides, the Solubility was 0.24 mg Solid/mL solvent in data set [2] (FaSSIF, slurry time 2 days, hemisulfate sesquihydrate); 167000 µg/mL in data set [4] (MeOH:Water (95:5), 6 vol, temperature when dissolution 60 ° C.); 125000 µg/mL in data set [4] (MeOH:Water (95:5), 8 vol, temperature when dissolution 50 ° C.); 167000 µg/mL in data set [4] (MeOH:Water (98:2), 6 vol, temperature when dissolution 35 ° C.); over 167000 µg/mL in data set [4] (MeOH:Water (99:1), 6 vol, temperature when dissolution 23 ° C.). Besides, in data set [3] (11%, 48%, and 75% relative humidity at 40° C. for 2 weeks), the “XRPD after humidity test” value was “remained unchanged”. For the same compound, the “XRPD after exposure to phosphorus pentoxide (P2O5) granules” value in data set [3] (50° C.) is reported as “slightly shifted”; in data set [3] (room temperature), “no change”. Also, the “XRPD peaks after P2O5 at 50° C. then exposure to ambient” value in data set [3] (ambient for 24 hrs, changes reversible) is listed as “shifted back to original positions”.

The values are drawn from patent US11254652B2, “Crystalline forms of N-(4-(4-(cyclopropymethyl)piperazine-1-carbonyl)phenyl)quinoline-8-sulfonamide” (Agios Pharmaceuticals, Inc., priority 2017, dated 2022).
